Legend:
[1] = target: Beta-2 adrenergic receptor (Homo sapiens, UniProt P07550)
[2] = target: Growth hormone secretagogue receptor type 1 (Homo sapiens, UniProt Q92847)
[3] = target: Muscarinic acetylcholine receptor M3 (Homo sapiens, UniProt P20309)
[4] = target: 5-hydroxytryptamine receptor 2B (Homo sapiens, UniProt P41595); type: functional, cell-based
Vasopressin V1a receptor = Vasopressin V1a receptor (Homo sapiens, UniProt P37288)
Progesterone receptor = target: T1, Progesterone receptor (Homo sapiens, UniProt P06401); type: functional
T1 sequence (P06401 whole entry): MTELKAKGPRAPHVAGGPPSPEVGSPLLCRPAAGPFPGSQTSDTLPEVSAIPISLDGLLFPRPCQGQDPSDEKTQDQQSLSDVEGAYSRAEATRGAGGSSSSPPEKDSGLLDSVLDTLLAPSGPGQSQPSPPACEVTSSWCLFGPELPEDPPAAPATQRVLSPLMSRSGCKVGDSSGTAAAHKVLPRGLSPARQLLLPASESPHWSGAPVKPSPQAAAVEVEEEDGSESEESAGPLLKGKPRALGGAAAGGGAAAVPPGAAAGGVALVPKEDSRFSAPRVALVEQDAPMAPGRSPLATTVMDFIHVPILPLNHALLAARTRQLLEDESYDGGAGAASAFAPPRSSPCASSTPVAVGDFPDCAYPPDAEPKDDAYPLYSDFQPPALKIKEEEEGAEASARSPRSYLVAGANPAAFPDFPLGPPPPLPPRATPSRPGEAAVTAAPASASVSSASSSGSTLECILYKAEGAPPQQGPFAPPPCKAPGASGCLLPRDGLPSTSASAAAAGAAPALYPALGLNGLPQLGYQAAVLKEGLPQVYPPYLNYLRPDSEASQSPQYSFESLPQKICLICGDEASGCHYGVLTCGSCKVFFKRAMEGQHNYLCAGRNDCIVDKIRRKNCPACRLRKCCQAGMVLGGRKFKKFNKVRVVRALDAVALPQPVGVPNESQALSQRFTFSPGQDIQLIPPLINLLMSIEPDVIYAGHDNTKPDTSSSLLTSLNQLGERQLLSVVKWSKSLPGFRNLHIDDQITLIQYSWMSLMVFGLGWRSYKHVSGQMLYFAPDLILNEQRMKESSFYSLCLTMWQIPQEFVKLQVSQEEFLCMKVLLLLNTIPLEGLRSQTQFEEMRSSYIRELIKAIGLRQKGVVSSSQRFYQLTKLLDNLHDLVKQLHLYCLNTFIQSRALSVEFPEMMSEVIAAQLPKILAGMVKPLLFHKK

Glucocorticoid receptor = target: T2, Glucocorticoid receptor (Homo sapiens, UniProt P04150)
T2 sequence (P04150 whole entry): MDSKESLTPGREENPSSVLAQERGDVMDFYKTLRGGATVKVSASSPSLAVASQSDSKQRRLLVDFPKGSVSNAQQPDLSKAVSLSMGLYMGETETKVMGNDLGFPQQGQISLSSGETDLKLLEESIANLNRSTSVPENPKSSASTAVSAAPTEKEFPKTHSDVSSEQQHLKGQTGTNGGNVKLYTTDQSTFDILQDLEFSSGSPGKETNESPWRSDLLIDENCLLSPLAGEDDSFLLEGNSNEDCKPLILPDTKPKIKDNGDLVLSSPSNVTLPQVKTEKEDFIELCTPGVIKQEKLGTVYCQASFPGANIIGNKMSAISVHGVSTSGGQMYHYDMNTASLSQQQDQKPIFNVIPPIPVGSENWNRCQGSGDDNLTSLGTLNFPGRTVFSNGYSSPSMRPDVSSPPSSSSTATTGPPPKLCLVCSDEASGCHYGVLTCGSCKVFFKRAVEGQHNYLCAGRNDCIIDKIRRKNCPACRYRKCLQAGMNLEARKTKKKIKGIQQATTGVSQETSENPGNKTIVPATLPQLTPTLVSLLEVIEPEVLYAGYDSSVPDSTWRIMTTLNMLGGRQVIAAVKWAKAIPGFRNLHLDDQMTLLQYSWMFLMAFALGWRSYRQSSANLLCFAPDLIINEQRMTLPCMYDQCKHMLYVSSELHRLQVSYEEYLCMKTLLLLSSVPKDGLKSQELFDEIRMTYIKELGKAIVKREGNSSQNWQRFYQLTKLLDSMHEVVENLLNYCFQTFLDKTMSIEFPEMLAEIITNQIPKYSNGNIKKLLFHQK

Estrogen receptor = target: T3, Estrogen receptor (Homo sapiens, UniProt P03372)
T3 sequence (P03372 whole entry): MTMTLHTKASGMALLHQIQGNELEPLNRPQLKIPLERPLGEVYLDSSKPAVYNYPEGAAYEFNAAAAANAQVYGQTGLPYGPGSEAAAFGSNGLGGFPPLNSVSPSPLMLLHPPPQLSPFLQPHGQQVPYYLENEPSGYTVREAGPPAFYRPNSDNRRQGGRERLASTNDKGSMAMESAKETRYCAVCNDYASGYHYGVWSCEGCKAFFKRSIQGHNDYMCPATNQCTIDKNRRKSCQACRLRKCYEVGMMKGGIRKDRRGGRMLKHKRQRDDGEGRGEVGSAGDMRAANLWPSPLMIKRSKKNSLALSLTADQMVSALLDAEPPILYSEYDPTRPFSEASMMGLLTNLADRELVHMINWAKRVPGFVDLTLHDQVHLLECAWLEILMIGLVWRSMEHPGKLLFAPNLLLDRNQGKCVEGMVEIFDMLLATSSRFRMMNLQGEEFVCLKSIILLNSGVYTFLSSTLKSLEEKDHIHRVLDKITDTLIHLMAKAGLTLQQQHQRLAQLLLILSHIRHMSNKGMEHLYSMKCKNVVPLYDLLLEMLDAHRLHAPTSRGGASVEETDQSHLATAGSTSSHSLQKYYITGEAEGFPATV

[5] = target: T4, Alpha-1A adrenergic receptor (Homo sapiens, UniProt P35348); type: functional, cell-based
T4 sequence (P35348 whole entry): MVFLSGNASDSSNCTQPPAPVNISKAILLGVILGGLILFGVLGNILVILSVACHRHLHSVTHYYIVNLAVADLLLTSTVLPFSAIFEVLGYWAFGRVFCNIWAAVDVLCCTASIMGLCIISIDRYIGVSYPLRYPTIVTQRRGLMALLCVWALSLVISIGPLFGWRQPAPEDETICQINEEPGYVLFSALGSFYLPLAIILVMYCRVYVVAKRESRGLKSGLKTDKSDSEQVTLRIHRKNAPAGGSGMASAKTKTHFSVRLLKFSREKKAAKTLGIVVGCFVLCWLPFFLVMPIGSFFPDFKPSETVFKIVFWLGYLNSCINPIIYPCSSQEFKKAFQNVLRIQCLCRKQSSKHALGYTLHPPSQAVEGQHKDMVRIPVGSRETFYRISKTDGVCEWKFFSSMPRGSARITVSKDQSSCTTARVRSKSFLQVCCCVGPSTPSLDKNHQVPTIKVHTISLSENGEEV
Also: assay procedure not described here.

Sequence of Vasopressin V1a receptor (P37288 whole entry): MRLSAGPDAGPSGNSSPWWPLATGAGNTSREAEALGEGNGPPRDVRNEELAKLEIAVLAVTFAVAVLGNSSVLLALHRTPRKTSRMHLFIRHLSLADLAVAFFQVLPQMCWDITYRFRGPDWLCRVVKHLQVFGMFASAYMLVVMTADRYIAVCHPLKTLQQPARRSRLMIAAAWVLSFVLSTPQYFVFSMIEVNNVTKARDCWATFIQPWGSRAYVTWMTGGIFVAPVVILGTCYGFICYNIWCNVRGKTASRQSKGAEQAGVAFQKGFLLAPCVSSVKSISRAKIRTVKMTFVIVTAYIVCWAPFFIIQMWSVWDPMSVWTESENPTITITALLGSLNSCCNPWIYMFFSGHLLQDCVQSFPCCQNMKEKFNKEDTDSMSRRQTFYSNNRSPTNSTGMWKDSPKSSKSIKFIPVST
Sequence of Muscarinic acetylcholine receptor M3 (P20309 whole entry): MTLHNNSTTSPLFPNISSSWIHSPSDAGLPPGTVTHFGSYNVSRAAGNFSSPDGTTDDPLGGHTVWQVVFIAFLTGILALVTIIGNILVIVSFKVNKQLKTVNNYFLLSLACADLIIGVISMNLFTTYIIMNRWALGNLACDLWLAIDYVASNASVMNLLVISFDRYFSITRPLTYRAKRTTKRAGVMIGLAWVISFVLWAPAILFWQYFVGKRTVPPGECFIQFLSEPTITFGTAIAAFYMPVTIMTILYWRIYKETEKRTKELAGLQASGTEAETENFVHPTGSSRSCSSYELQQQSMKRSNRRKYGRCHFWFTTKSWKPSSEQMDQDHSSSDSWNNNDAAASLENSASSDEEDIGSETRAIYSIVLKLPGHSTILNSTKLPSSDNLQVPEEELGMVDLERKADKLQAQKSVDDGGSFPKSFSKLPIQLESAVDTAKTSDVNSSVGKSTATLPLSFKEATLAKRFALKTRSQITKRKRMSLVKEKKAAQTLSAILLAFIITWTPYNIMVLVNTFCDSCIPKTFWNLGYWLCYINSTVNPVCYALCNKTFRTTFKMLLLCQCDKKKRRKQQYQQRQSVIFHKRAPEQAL
Sequence of 5-hydroxytryptamine receptor 2B (P41595 whole entry): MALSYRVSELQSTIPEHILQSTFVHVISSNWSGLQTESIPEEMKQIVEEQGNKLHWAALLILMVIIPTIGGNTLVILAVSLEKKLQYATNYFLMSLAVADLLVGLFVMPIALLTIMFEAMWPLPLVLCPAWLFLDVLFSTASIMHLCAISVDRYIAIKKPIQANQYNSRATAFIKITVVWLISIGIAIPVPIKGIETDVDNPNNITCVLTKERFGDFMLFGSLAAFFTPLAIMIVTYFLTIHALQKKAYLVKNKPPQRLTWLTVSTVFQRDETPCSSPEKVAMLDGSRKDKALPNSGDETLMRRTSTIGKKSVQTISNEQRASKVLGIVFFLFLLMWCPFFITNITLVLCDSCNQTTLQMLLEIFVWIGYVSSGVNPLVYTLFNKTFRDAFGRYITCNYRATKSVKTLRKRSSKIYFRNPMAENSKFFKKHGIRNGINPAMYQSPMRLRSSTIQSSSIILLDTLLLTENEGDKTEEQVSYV
Sequence of Growth hormone secretagogue receptor type 1 (Q92847 whole entry): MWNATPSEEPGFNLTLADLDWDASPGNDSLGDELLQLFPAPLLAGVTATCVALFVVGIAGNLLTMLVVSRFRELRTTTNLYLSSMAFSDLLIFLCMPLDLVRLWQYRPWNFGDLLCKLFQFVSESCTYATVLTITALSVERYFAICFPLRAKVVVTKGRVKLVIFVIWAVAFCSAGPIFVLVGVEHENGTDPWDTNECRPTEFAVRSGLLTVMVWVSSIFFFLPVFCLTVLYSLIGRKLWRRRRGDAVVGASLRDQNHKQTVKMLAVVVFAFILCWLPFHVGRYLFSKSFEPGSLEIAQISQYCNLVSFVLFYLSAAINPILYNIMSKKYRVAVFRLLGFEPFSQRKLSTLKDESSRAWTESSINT
Sequence of Beta-2 adrenergic receptor (P07550 whole entry): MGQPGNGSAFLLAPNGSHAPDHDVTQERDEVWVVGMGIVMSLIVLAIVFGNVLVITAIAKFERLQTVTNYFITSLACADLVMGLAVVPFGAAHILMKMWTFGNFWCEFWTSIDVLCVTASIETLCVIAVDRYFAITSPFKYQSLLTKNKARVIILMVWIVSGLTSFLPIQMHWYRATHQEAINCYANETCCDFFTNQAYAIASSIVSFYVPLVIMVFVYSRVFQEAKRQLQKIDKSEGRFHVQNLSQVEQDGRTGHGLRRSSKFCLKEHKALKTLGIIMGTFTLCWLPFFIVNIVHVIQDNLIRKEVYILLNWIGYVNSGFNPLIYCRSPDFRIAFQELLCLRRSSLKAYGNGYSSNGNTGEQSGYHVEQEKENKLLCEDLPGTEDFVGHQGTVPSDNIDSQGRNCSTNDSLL

CC(=O)OCC(=O)[C@@]1(O)CC[C@H]2[C@@H]3CCC4=CC(=O)CC[C@]4(C)C3=CC[C@@]21C [ANECORTAVE ACETATE]
AC50 [1]: > 10 µM | AC50 [2]: > 10 µM | AC50 [3]: > 30 µM | AC50 [4]: > 10 µM | AC50 (Vasopressin V1a receptor): > 10 µM | AC50 (Progesterone receptor): > 30 µM | AC50 (Glucocorticoid receptor): 1.7 µM | AC50 (Estrogen receptor): > 30 µM | AC50 [5]: > 30 µM

O=C(CCCN1CCC(n2c(O)nc3ccccc32)CC1)c1ccc(F)cc1 [BENPERIDOL]
AC50 [1]: 8.6 µM | AC50 [2]: 17 µM | AC50 [3]: 12 µM | AC50 [4]: > 30 µM | AC50 (Vasopressin V1a receptor): > 30 µM | AC50 (Progesterone receptor): 29 µM | AC50 (Glucocorticoid receptor): > 30 µM | AC50 (Estrogen receptor): > 30 µM | AC50 [5]: > 30 µM

CCN(CC)C(=O)C1CN2CCc3cc(OC)c(OC)cc3C2CC1OC(C)=O (stereo not drawn) [BENZQUINAMIDE]
AC50 [1]: > 10 µM | AC50 [2]: > 30 µM | AC50 [3]: > 30 µM | AC50 [4]: > 30 µM | AC50 (Vasopressin V1a receptor): > 30 µM | AC50 (Progesterone receptor): > 30 µM | AC50 (Glucocorticoid receptor): > 30 µM | AC50 (Estrogen receptor): > 30 µM | AC50 [5]: > 30 µM

CCC(C)(Oc1ccc(C2(c3ccc(OC(C)(CC)C(=O)O)cc3)CCCCC2)cc1)C(=O)O (stereo not drawn) [CLINOFIBRATE]
AC50 [1]: > 30 µM | AC50 [2]: > 30 µM | AC50 [3]: > 30 µM | AC50 [4]: > 30 µM | AC50 (Vasopressin V1a receptor): > 30 µM | AC50 (Progesterone receptor): > 30 µM | AC50 (Glucocorticoid receptor): > 30 µM | AC50 (Estrogen receptor): > 30 µM | AC50 [5]: > 30 µM

CCCCC[C@H](O)/C=C/[C@H]1[C@H](O)CC(=O)[C@@H]1C/C=C\CCCC(=O)O [DINOPROSTONE]
AC50 [1]: > 30 µM | AC50 [2]: > 30 µM | AC50 [3]: > 30 µM | AC50 [4]: > 30 µM | AC50 (Vasopressin V1a receptor): > 30 µM | AC50 (Progesterone receptor): 4.5 µM | AC50 (Glucocorticoid receptor): > 30 µM | AC50 (Estrogen receptor): 23 µM | AC50 [5]: > 30 µM

CCCN(CC)C(CC)C(=O)Nc1c(C)cccc1C (stereo not drawn) [ETIDOCAINE]
AC50 [1]: > 30 µM | AC50 [2]: > 30 µM | AC50 [3]: > 30 µM | AC50 [4]: > 30 µM | AC50 (Vasopressin V1a receptor): > 30 µM | AC50 (Progesterone receptor): > 30 µM | AC50 (Glucocorticoid receptor): > 30 µM | AC50 (Estrogen receptor): > 30 µM | AC50 [5]: > 30 µM

Clc1ccc(C(Cn2ccnc2)OCc2ccc(Sc3ccccc3)cc2)c(Cl)c1 (stereo not drawn) [FENTICONAZOLE]
AC50 [1]: > 30 µM | AC50 [2]: > 30 µM | AC50 [3]: 21 µM | AC50 [4]: > 30 µM | AC50 (Vasopressin V1a receptor): > 30 µM | AC50 (Progesterone receptor): 25 µM | AC50 (Glucocorticoid receptor): > 30 µM | AC50 (Estrogen receptor): > 10 µM | AC50 [5]: > 30 µM

Nc1nc(F)nc2c1ncn2[C@@H]1O[C@H](COP(=O)(O)O)[C@@H](O)[C@@H]1O [FLUDARABINE PHOSPHATE]
AC50 [1]: > 30 µM | AC50 [2]: > 30 µM | AC50 [3]: > 30 µM | AC50 [4]: > 30 µM | AC50 (Vasopressin V1a receptor): > 30 µM | AC50 (Progesterone receptor): > 30 µM | AC50 (Glucocorticoid receptor): > 30 µM | AC50 (Estrogen receptor): > 30 µM | AC50 [5]: > 30 µM

CCCCCCOC(=O)CCC(=O)CN [HEXAMINOLEVULINATE]
AC50 [1]: > 30 µM | AC50 [2]: > 30 µM | AC50 [3]: > 30 µM | AC50 [4]: > 30 µM | AC50 (Vasopressin V1a receptor): > 30 µM | AC50 (Progesterone receptor): > 30 µM | AC50 (Glucocorticoid receptor): > 30 µM | AC50 (Estrogen receptor): > 30 µM | AC50 [5]: > 30 µM

CC(=O)Nc1c(I)c(C(=O)N[C@H]2C(O)O[C@H](CO)[C@@H](O)[C@@H]2O)c(I)c(N(C)C(C)=O)c1I (stereo partly drawn) [METRIZAMIDE]
AC50 [1]: > 10 µM | AC50 [2]: > 10 µM | AC50 [3]: > 30 µM | AC50 [4]: > 10 µM | AC50 (Vasopressin V1a receptor): > 10 µM | AC50 (Progesterone receptor): > 10 µM | AC50 (Glucocorticoid receptor): > 10 µM | AC50 (Estrogen receptor): > 10 µM | AC50 [5]: > 30 µM

NC(=O)CCC/N=C(\c1ccc(Cl)cc1)c1cc(F)ccc1O [PROGABIDE]
AC50 [1]: > 10 µM | AC50 [2]: > 10 µM | AC50 [3]: > 30 µM | AC50 [4]: > 10 µM | AC50 (Vasopressin V1a receptor): > 10 µM | AC50 (Progesterone receptor): > 10 µM | AC50 (Glucocorticoid receptor): > 10 µM | AC50 (Estrogen receptor): > 10 µM | AC50 [5]: > 30 µM

CCCOC(C(=O)OC1CCN(C)CC1)(c1ccccc1)c1ccccc1 [PROPIVERINE]
AC50 [1]: > 30 µM | AC50 [2]: > 30 µM | AC50 [3]: 0.83 µM | AC50 [4]: > 30 µM | AC50 (Vasopressin V1a receptor): > 30 µM | AC50 (Progesterone receptor): > 30 µM | AC50 (Glucocorticoid receptor): > 30 µM | AC50 (Estrogen receptor): > 30 µM | AC50 [5]: > 30 µM
